Assay results taken from the supplement of paper PMC5412046.
Where a name gives a salt, the structure may show the parent alone.

Assays:
SB.mhdgc-1 = assay: AC50 for growth inhibition (viability) (log10 M); higher = less potent; conditions: SB.mhdgc-1 (hereditary c.1380delA CDH1 gastric cancer)
Procedure, shortened: (§1)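 Values are log half-maximal activity concentrations from four-parameter fits of DMSO-normalised viability, restricted to high-quality curve classes. Patient-derived gastric cancer cells, hereditary or sporadic, were plated at 500 cells per 1536 well in 5 μL medium and given 23 nL compound in DMSO by pintool across 11 threefold dilutions, the top final concentration being 46 μM. Viability was read by ViewLux luminescence after 48 h and a 30 min CellTiter-Glo step at room temperature.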

SB.msgc-1 = assay: as above; conditions: SB.msgc-1 (sporadic gastric cancer)
Procedure, shortened: as §1

| Compound | AC50 for growth inhibition (log10 M) (SB.mhdgc-1) | AC50 for growth inhibition (log10 M) (SB.msgc-1) |
| --- | --- | --- |
| CCC(=O)N1CCN(CC1)C2=C(C=C(C=C2)N3C(=O)\C=C/C4=C3C5=CC(=CC=C5N=C4)C6=CN=C7C=CC=CC7=C6)C(F)(F)F [Torin-1] | -6.63 | -5.13 |
| CC1=C(CC(=O)O)c2cc(F)ccc2/C1=C\c1ccc([S+](C)[O-])cc1 (stereo not drawn) [Sulindac] | -5.93 | -5.53 |
| Cc1c(C(=O)Nc2cccc(C(F)(F)F)c2)cc(-c2ccccc2)n1CCCN1CCOCC1 | -4.78 | -4.83 |
| CNC(=O)c1cc(Oc2ccc(NC(=O)Nc3ccc(Cl)c(C(F)(F)F)c3)cc2)ccn1 [Sorafenib] | -5.08 | -4.98 |
| C[C@H]1[C@@H](CC(C[C@H]2O[C@@H]3O[C@]4(C)CC[C@H]5[C@H](C)CC[C@@H]([C@H]2C)[C@@]35OO4)C[S+](=O)([O-])c2ccc(COC(=O)N(C)C)cc2)O[C@@H]2O[C@]3(C)CC[C@H]4[C@H](C)CC[C@@H]1[C@@]24OO3 [ASR-isobudimer-SO2Ph-4-CH2OC(O)NMe2] | -6.93 | -6.48 |
| COc1cc(Oc2ccnc3cc(OC)c(OC)cc23)ccc1NC(=O)NC(C)c1nccs1 (stereo not drawn) | -4.73 | -4.78 |
| CNC(=O)c1ccc(N2C(=S)N(c3cnc(C#N)c(C(F)(F)F)c3)C(=O)C23CCC3)cc1F [ARN-509] | -6.53 | -6.08 |
| COc1ccc(Nc2cc(-c3cnc(N)nc3)nc(N3CCOCC3)n2)cn1 [NIBR-17] | -6.48 | -5.18 |
| OCCN1CCN(CCCN2c3ccccc3Sc3ccc(C(F)(F)F)cc32)CC1 [Fluphenazine hydrochloride] | -4.83 | -4.78 |
| CCOC(=O)\C1=C\[C@]2(CC)CCCN3CCC4=C([C@H]23)[N]1C5=C4C=CC=C5 [Vinpocetine] | -4.93 | -4.63 |
| COc1ccc(C(=O)CC(=O)c2ccc(C(C)(C)C)cc2)cc1 [Avobenzone] | -6.18 | -5.58 |
| OC[C@H]1O[C@@H]2[C@@H](OC\3=N\C(=N)\C=C/[N@@]23)[C@@H]1O [Cyclocytidine HCl] | -6.13 | -5.43 |
| Cc1cc(C(=O)N2CCN(c3cccc(Cl)c3)CC2)n(-c2ccccc2)n1 [XRP-44X] | -6.38 | -5.48 |
| Cn1cnc2c1c(=O)[nH]c(=O)n2C [Theobromine] | -4.63 | -4.78 |
| CCN(CC)CCCCNc1ncc2c(n1)N(C)C(=O)N(c1c(Cl)c(OC)cc(OC)c1Cl)C2 | -4.78 | -4.63 |
| NC\1=N\C(=O)N(\C=C1F)[C@H]2C[C@H](O)[C@@H](CO)O2 | -8.38 | -6.53 |
| COc1ccc(/C=C\c2cc(OC)c(OC)c(OC)c2)cc1O [Combretastatin A-4] | -8.68 | -5.23 |
| N#C[C@H](O[C@@H]1O[C@H](CO[C@@H]2O[C@H](CO)[C@@H](O)[C@H](O)[C@H]2O)[C@@H](O)[C@H](O)[C@H]1O)c1ccccc1 [Amygdalin] | -4.73 | -4.68 |
| CC1(C)CC(=O)c2c(C(F)(F)F)nn(-c3ccc(C(N)=O)c(NC4CCC(O)CC4)c3)c2C1 (stereo not drawn) [SNX-2112] | -6.48 | -7.43 |
| Cc1n[nH]c2ccc(-c3cncc(OC[C@@H](N)Cc4c[nH]c5ccccc45)c3)cc12 | -6.03 | -6.08 |

| Compound | AC50 for growth inhibition (log10 M) (SB.mhdgc-1) | AC50 for growth inhibition (log10 M) (SB.msgc-1) |
| --- | --- | --- |
| CC1=CC=CC=C1N2\C(=N/C3=C(C(=CC=C3)C)C2=O)C[N]4C=NC5=C4N=CN=C5N | -5.43 | -6.23 |
| O=C1[C@H](Cc2ccc(O)cc2)N2C(=O)CCN(C(=O)NCc3ccccc3)[C@H]2CN1Cc1cccc2ccccc12 [ICG-001] | -4.83 | -4.88 |
| O=C(CC12CC3CC(CC(C3)C1)C2)Nc1cccc2nc(NCCNCCO)ccc12 | -4.83 | -4.78 |
| Cc1nn(Cc2ccccc2Cl)c(C)c1CN(C)CC(O)COc1ccc(Cl)cc1 (stereo not drawn) | -4.78 | -4.73 |
| CCc1ccc(C(=O)Nc2cc(CN3CCN(C)CC3)cc(C(F)(F)F)c2)cc1C#Cc1cnc2ccnn2c1 [PRP003-013] | -5.13 | -4.78 |
| O=C(NCCCNc1nc(Nc2cccc(NC(=O)N3CCCC3)c2)ncc1I)c1cccs1 [BX-795] | -4.83 | -4.88 |
| Cc1ccc(NC(=O)Nc2cc(C(F)(F)F)ccc2F)cc1Nc1ccc2c(c1)NC(=O)/C2=C\c1ccc[nH]1 [GNF-5837] | -4.83 | -4.73 |
| O=C(NOCC1CC1)c1ccc(F)c(F)c1Nc1ccc(I)cc1Cl | -4.78 | -4.83 |
| Cc1ccccc1C(=O)c1ccc(Nc2ccc(Br)cc2N)cc1Cl [EO-1428] | -4.93 | -4.78 |
| O=C(Nc1nc2ccccc2n1CCN1CCOCC1)c1cccc([N+](=O)[O-])c1 | -4.83 | -4.83 |
| CCN1CCC(n2cc(CNc3cc(Cl)c4ncc(C#N)c(Nc5ccc(F)c(Cl)c5)c4c3)nn2)CC1 [Wyeth Cot inhibitor-2] | -5.03 | -4.73 |
| O=C(c1ccc(F)c(F)c1Nc1ccc(I)cc1F)N1CC(O)([C@H]2CCCCN2)C1 [Cobimetinib] | -4.78 | -5.28 |
| CN1CCc2c(c3ccccc3n2Cc2ccc(C(=O)NO)cc2)C1 [Tubastatin A] | -4.63 | -4.68 |
| O=C1\C=C/C=C2/[C@H]3CNC[C@H](C3)CN12 [Cytisine] | -6.03 | -4.83 |
| O=C(c1ccc(OCCN2CCCCC2)cc1)c1c(-c2ccc(O)cc2)sc2cc(O)ccc12 [Raloxifene hydrochloride] | -6.88 | -5.18 |
| COc1ccc(/C=C\c2cc(OC)c(OC)c(OC)c2)cc1NC(=O)[C@H](N)CO [Ombrabulin] | -7.78 | -8.38 |
| CC(C)(C)NC(=O)[C@H]1CC[C@H]2[C@@H]3CC[C@H]4NC(=O)\C=C/[C@]4(C)[C@H]3CC[C@]12C [Finasteride] | -6.23 | -5.78 |
| Cc1cn[nH]c1 [Fomepizole] | -6.68 | -7.18 |
| NC(CO)(CO)CCc1ccc(Sc2cccc(OCc3ccccc3)c2)cc1Cl [KRP 203] | -5.03 | -4.58 |
